Experimental data as given in patent US7456291B2, “Use of a vitamin combination for the treatment of primary headaches” (priority 2000, dated 2008).
Like-named read-outs stand apart in the source and are kept apart here.

Key:
[1] = system: classical migraine (migraine with an aura); experiment: Clinical cases: treatment of classical migraine (migraine with an aura); format: in vivo, human patient; conditions: 2nd series, 50 mg nicotinamide alone orally twice a day
Description: 1st case—a person with a classical migraine (or a migraine with an aura). The patient had been suffering from classical migraine symptoms for 30 years. Initially, the symptoms were located in the right temporal region and later spread to the top and to the left temple with characteristic pulsations, accompanied by photophobia, vertigo and buzzing ears. The attacks lasted for about 10 days on a monthly basis.
Later, during a migraine attack, the patient started a treatment based on 50 mg of nicotinamide+2.5 mg of riboflavin taken orally twice a day. […] During this period the patient had completely suspended the old therapy. They continued with the new treatment, according to the present invention, for another 7 days to then temporarily suspend it. Later on, the dosage was halved for 10 days a month for preventive purposes.
1st case—person one with a classical migraine (or migraine with an aura). The patient had been suffering from classical migraine symptoms for 15 years and had photophobia, flashing scotoma and vertigo. […] The symptoms were located on the right side, occurred about twice a month and lasted a week, on average. When suffering from migraines the patient could not perform any activity. The acute episodes were preceded by photophobia, buzzing ears and visual disorders (scotoma). […]

cluster headaches = experiment: Clinical cases: treatment of cluster headaches; format: in vivo, human patient; conditions: 2nd series, 4th case; 50 mg nicotinamide alone orally twice a day
Description: 4th case—a person with cluster headaches. The patient had been suffering from nocturnal headaches for about 15 years. The headaches started about 3 hours after sleep onset and presented a left orbital pain, lachrymation, nasal congestion and an oedema of the left cheek.
They continued with the therapy for another 15 days and then the dosage was halved and treatment continued for 15 days a month.
4th case—a person with cluster headaches. The patient suffered from cluster headaches that made them wake up in the night with lacerating head pains. The pains were accompanied by lachrymation and rhinorrhea.

[2] = system: primary headaches (common, classical, complicated migraine, cluster headache); experiment: Clinical experimentation in primary headache forms, overall statements; conditions: single agent; for effectiveness in combating the forms of headache considered: systemic administration at the typical dosage used for pellagra
[3] = system: common migraine (migraine without an aura); experiment: Clinical cases: treatment of common migraine (migraine without an aura); format: in vivo, human patient; conditions: 2nd series, 3rd case; 50 mg nicotinamide alone orally twice a day
complicated migraine = experiment: Clinical cases: treatment of complicated migraine; format: in vivo, human patient; conditions: 2nd series, 2nd case; 50 mg nicotinamide alone orally twice a day
[4] = system: primary headaches (common, classical, complicated migraine, cluster headache); conditions: human, in vivo

NC(=O)c1cccnc1 [nicotinamide]
time until migraine symptoms attenuated ([1]; 1st case one): 5 days | complete disappearance of migraine symptoms ([1]; 1st case): did not disappear completely | time until the migraine returned (lesser intensity) under continued treatment ([1]; 1st case): about 10 days | time until the headaches attenuated (cluster headaches): 5 to 6 days | effectiveness in combating the forms of headache considered [2]: not very effective | secondary reactions reported for high doses ([2]; systemic administration in doses well below those for hypercholesterolemy): does not lead to the secondary reactions | time until the migraine was partially attenuated [3]: about 5 days | time until the problem was attenuated (complicated migraine): 6 days

O=C(O)c1cccnc1 [nicotinic acid, 3-pyridincarboxylic acid]
secondary reactions reported for high doses [4]: does not lead to the secondary reactions | effectiveness in combating the forms of headache considered [2]: not very effective
